Laboratory results reported in patent US20210045385A1, “PYRIDAZINONE-SUBSTITUTED KETOXIMES AS HERBICIDES” (FMC Corporation, priority 2018, published 2021).

Experiments:
Format in all cases: in vivo
kochia (Kochia scoparia) [1] = assay: Test A postemergence, visual plant response rating; settings: for Kochia plant response rating (0 to 100 scale): 500 g ai/ha, postemergence, 0 is no effect, 100 is complete control; for Kochia plant response rating: Postemergence, 125 g ai/ha, 0 to 100 scale (0 no effect, 100 complete control)
Outline: (§1)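 Ratings use a 0–100 visual scale (100 = complete control) against untreated controls, scored about 10 days after greenhouse treatment. Test chemicals were formulated in surfactant-containing non-phytotoxic solvent and applied either as soil spray after planting (preemergence) or onto one- to two-leaf, 2–10 cm plants (postemergence).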

[2] = tested on: galium (catchweed bedstraw, Galium aparine); assay: Test A postemergence, visual plant response rating; settings: for Galium plant response rating (0 to 100 scale): 500 g ai/ha, postemergence, 0 is no effect, 100 is complete control; for Galium plant response rating: Postemergence, 125 g ai/ha, 0 to 100 scale (0 no effect, 100 complete control)
Outline: as §1

[3] = tested on: Italian ryegrass (Lolium multiflorum); assay: Test A postemergence, visual plant response rating
Outline: as §1

[4] = tested on: foxtail, giant (giant foxtail, Setaria faberii); assay: Test A postemergence, visual plant response rating; settings: for Foxtail, Giant plant response rating (0 to 100 scale): 500 g ai/ha, postemergence, 0 is no effect, 100 is complete control; for Foxtail, Giant plant response rating: Postemergence, 125 g ai/ha, 0 to 100 scale (0 no effect, 100 complete control)
Outline: as §1

[5] = tested on: pigweed (Amaranthus retroflexus); assay: Test A postemergence, visual plant response rating; settings: for Pigweed plant response rating (0 to 100 scale): 500 g ai/ha, postemergence, 0 is no effect, 100 is complete control; for Pigweed plant response rating: Postemergence, 125 g ai/ha, 0 to 100 scale (0 no effect, 100 complete control)
Outline: as §1

[6] = tested on: blackgrass (Alopecurus myosuroides); assay: Test A postemergence, visual plant response rating; settings: for Blackgrass plant response rating (0 to 100 scale): 500 g ai/ha, postemergence, 0 is no effect, 100 is complete control; for Blackgrass plant response rating: Postemergence, 125 g ai/ha, 0 to 100 scale (0 no effect, 100 complete control)
Outline: as §1

[7] = tested on: barnyardgrass (Echinochloa crus-galli); assay: Test A postemergence, visual plant response rating; settings: for Barnyardgrass plant response rating (0 to 100 scale): 500 g ai/ha, postemergence, 0 is no effect, 100 is complete control; for Barnyardgrass plant response rating: Postemergence, 125 g ai/ha, 0 to 100 scale (0 no effect, 100 complete control)
Outline: as §1

[8] = tested on: ragweed (common ragweed, Ambrosia elatior); assay: Test A postemergence, visual plant response rating; settings: for Ragweed plant response rating (0 to 100 scale): 500 g ai/ha, postemergence, 0 is no effect, 100 is complete control; for Ragweed plant response rating: Postemergence, 125 g ai/ha, 0 to 100 scale (0 no effect, 100 complete control)
Outline: as §1

corn (Zea mays) = assay: Test A postemergence, visual plant response rating; settings: for Corn plant response rating (0 to 100 scale): 500 g ai/ha, postemergence, 0 is no effect, 100 is complete control; for Corn plant response rating: Postemergence, 125 g ai/ha, 0 to 100 scale (0 no effect, 100 complete control)
Outline: as §1

[9] = tested on: wheat (Triticum aestivum); assay: Test A postemergence, visual plant response rating; settings: for Wheat plant response rating: 0 to 100 scale (0 no effect, 100 complete control)
Outline: as §1

[10] = tested on: ducksalad (Heteranhera limosa); assay: Test B flooded paddy test, visual plant response rating; settings: 250 g ai/ha, Flood, applied to paddy water, 2-leaf stage, evaluated after 13 to 15 days
Outline: (§2)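 Plants were raised to the 2-leaf stage, then pots were flooded to 3 cm above the soil and test compound was applied directly into the paddy water. Water depth was held for the whole test; after 13 to 15 days in a greenhouse, responses were scored visually against controls.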

rice (Oryza sativa) = assay: as above; settings: 250 g ai/ha, Flood, applied to paddy water, 2-leaf stage, evaluated after 13 to 15 days
Outline: as §2

[11] = tested on: sedge, umbrella (small-flower umbrella sedge, Cyperus difformis); assay: as above; settings: 250 g ai/ha, Flood, applied to paddy water, 2-leaf stage, evaluated after 13 to 15 days
Outline: as §2

[12] = tested on: barnyardgrass (Echinochloa crus-galli); assay: as above; settings: 250 g ai/ha, Flood, applied to paddy water, 2-leaf stage, evaluated after 13 to 15 days
Outline: as §2

kochia (Kochia scoparia) [13] = assay: Test A preemergence, visual plant response rating; settings: for Kochia plant response rating: 125 g ai/ha, preemergence, 0 to 100 scale, 0 no effect, 100 complete control; for Kochia plant response rating (0 to 100 scale): 500 g ai/ha Preemergence, approx. 10 days
Outline: as §1

[14] = tested on: Italian ryegrass (Lolium multiflorum); assay: Test A preemergence, visual plant response rating; settings: for Ryegrass, Italian plant response rating: 125 g ai/ha, preemergence, 0 to 100 scale, 0 no effect, 100 complete control; for Ryegrass, Italian plant response rating (0 to 100 scale): 500 g ai/ha Preemergence, approx. 10 days
Outline: as §1

[15] = tested on: foxtail, giant (giant foxtail, Setaria faberii); assay: Test A preemergence, visual plant response rating; settings: for Foxtail, Giant plant response rating: 125 g ai/ha, preemergence, 0 to 100 scale, 0 no effect, 100 complete control; for Foxtail, Giant plant response rating (0 to 100 scale): 500 g ai/ha Preemergence, approx. 10 days
Outline: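 Greenhouse pot test in loam–sand soil mix: compound in a surfactant-containing non-phytotoxic solvent applied preemergence (directed soil spray) or postemergence (one- to two-leaf plants, 2–10 cm). Injury scored visually after ~10 days, 0–100.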

[16] = tested on: pigweed (Amaranthus retroflexus); assay: Test A preemergence, visual plant response rating; settings: for Pigweed plant response rating: 125 g ai/ha, preemergence, 0 to 100 scale, 0 no effect, 100 complete control; for Pigweed plant response rating (0 to 100 scale): 500 g ai/ha Preemergence, approx. 10 days
Outline: as §1

[17] = tested on: barnyardgrass (Echinochloa crus-galli); assay: Test A preemergence, visual plant response rating; settings: for Barnyardgrass plant response rating: 125 g ai/ha, preemergence, 0 to 100 scale, 0 no effect, 100 complete control; for Barnyardgrass plant response rating (0 to 100 scale): 500 g ai/ha Preemergence, approx. 10 days
Outline: as §1

[18] = tested on: ragweed (common ragweed, Ambrosia elatior); assay: Test A preemergence, visual plant response rating; settings: for Ragweed plant response rating: 125 g ai/ha, preemergence, 0 to 100 scale, 0 no effect, 100 complete control; for Ragweed plant response rating (0 to 100 scale): 500 g ai/ha Preemergence, approx. 10 days
Outline: as §1

[19] = 500 g ai/ha, postemergence, 0 is no effect, 100 is complete control

Row | Compound | Kochia plant response rating (0 to 100 scale) (kochia (Kochia scoparia) [1]) | Kochia plant response rating (kochia (Kochia scoparia) [1]) | Galium plant response rating (0 to 100 scale) [2] | Galium plant response rating [2] | Ryegrass, Italian plant response rating (0 to 100 scale) [3, 19] | Foxtail, Giant plant response rating (0 to 100 scale) [4] | Foxtail, Giant plant response rating [4] | Pigweed plant response rating (0 to 100 scale) [5] | Pigweed plant response rating [5] | Blackgrass plant response rating (0 to 100 scale) [6] | Blackgrass plant response rating [6] | Barnyardgrass plant response rating (0 to 100 scale) [7] | Barnyardgrass plant response rating [7] | Ragweed plant response rating (0 to 100 scale) [8] | Ragweed plant response rating [8] | Corn plant response rating (0 to 100 scale) (corn (Zea mays)) | Corn plant response rating (corn (Zea mays)) | Plant response rating, Ducksalad (0 to 100 scale, 0 is no effect, 100 is complete control) [10] | Plant response rating, Rice (0 to 100 scale, 0 is no effect, 100 is complete control) (rice (Oryza sativa)) | Plant response rating, Sedge, Umbrella (0 to 100 scale, 0 is no effect, 100 is complete control) [11] | also measured
1 | C=CCO/N=C(/c1c(O)c(C)nn(C)c1=O)c1ccc(F)c2ccccc12 [Compound 87] | 70 | 40 | 100 | 80 | 100 | 80 | 70 | 90 | 70 | 90 | 80 | 80 | 60 | 90 | 100 | 30 | 0 | 0 | 0 | 0 | Ryegrass, Italian plant response rating ([3]; Postemergence, 125 g ai/ha, 0 to 100 scale (0 no effect, 100 complete control)): 80; Wheat plant response rating (0 to 100 scale) [9, 19]: 60; Wheat plant response rating ([9]; Postemergence, 125 g ai/ha): 40; Plant response rating, Barnyardgrass (0 to 100 scale, 0 is no effect, 100 is complete control) [12]: 0; Kochia plant response rating (kochia (Kochia scoparia) [13]): 0; Kochia plant response rating (0 to 100 scale) (kochia (Kochia scoparia) [13]): 30; Ryegrass, Italian plant response rating [14]: 90; Ryegrass, Italian plant response rating (0 to 100 scale) [14]: 100; Foxtail, Giant plant response rating [15]: 90; Foxtail, Giant plant response rating (0 to 100 scale) [15]: 100; Pigweed plant response rating [16]: 30; Pigweed plant response rating (0 to 100 scale) [16]: 100; Barnyardgrass plant response rating [17]: 70; Barnyardgrass plant response rating (0 to 100 scale) [17]: 90; Ragweed plant response rating [18]: 90; Ragweed plant response rating (0 to 100 scale) [18]: 90
2 | CON=C(c1ccc(C)o1)c1c(O)c(C)nn(C)c1=O [Compound 141] | 0 | 0 | 10 | 0 | 0 | 0 | 0 | 0 | 0 | 30 | 10 | 0 | 0 | 0 | 0 | 0 | 0 | 0 | 0 | 0 | Ryegrass, Italian plant response rating (0 to 100 scale) ([3]; Postemergence, rate not given, approx. 10 days): 0; Wheat plant response rating ([9]; Postemergence, 500 g ai/ha): 0; Wheat plant response rating (0 to 100 scale) ([9]; Postemergence, approx. 10 days): 0; Plant response rating, Barnyardgrass (0 to 100 scale, 0 is no effect, 100 is complete control) [12]: 0; Kochia plant response rating (kochia (Kochia scoparia) [13]): 0; Kochia plant response rating (0 to 100 scale) (kochia (Kochia scoparia) [13]): 0; Ryegrass, Italian plant response rating [14]: 0; Ryegrass, Italian plant response rating (0 to 100 scale) [14]: 20; Foxtail, Giant plant response rating [15]: 0; Foxtail, Giant plant response rating (0 to 100 scale) [15]: 0; Pigweed plant response rating [16]: 0; Pigweed plant response rating (0 to 100 scale) [16]: 0; Barnyardgrass plant response rating [17]: 0; Barnyardgrass plant response rating (0 to 100 scale) [17]: 0; Ragweed plant response rating [18]: 0; Ragweed plant response rating (0 to 100 scale) [18]: 0
